Measured values as given in PubChem BioAssay (NCI).
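Briefly, cells in 96-well plates were exposed to five compound concentrations for 48 h, and endpoints were estimated by linear interpolation. TGI is the concentration that stops growth completely.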

What was measured:
Test in all cases: NCI tumour cell line growth inhibition, 48 h
[1] = tested on: 786-0 renal
[2] = tested on: A498 renal
[3] = tested on: A549 NSCLC
[4] = tested on: ACHN renal
[5] = tested on: BT-549 breast
[6] = tested on: CAKI-1 renal
[7] = tested on: CCRF-CEM leukemia
[8] = tested on: COLO 205 colon
[9] = tested on: DLD-1 colon
[10] = tested on: DMS 114 small cell lung
[11] = tested on: DMS 273 small cell lung
[12] = tested on: DU-145 prostate
[13] = tested on: EKVX NSCLC
[14] = tested on: HCC-2998 colon
[15] = tested on: HCT-116 colon
[16] = tested on: HCT-15 colon
[17] = tested on: HL-60(TB) leukemia
[18] = tested on: HOP-18 NSCLC
[19] = tested on: HOP-62 NSCLC
[20] = tested on: HOP-92 NSCLC
[21] = tested on: HS 578T breast
[22] = tested on: HT29 colon
[23] = tested on: IGROV1 ovarian
[24] = tested on: K-562 leukemia
[25] = tested on: KM12 colon
[26] = tested on: KM20L2 colon
[27] = tested on: LOX IMVI melanoma
[28] = tested on: M14 melanoma
[29] = tested on: M19-MEL melanoma
[30] = tested on: MALME-3M melanoma
[31] = tested on: MCF7 breast
[32] = tested on: MDA-MB-231 breast
[33] = tested on: MDA-MB-435
[34] = tested on: MDA-N
[35] = tested on: MOLT-4 leukemia
[36] = tested on: NCI-H226 lung
[37] = tested on: NCI-H23 lung
[38] = tested on: NCI-H460 lung
[39] = tested on: NCI-H522 lung
[40] = tested on: NCI/ADR-RES ovarian
[41] = tested on: OVCAR-3 ovarian
[42] = tested on: OVCAR-4 ovarian
[43] = tested on: OVCAR-5 ovarian
[44] = tested on: OVCAR-8 ovarian
[45] = tested on: P388 leukemia
[46] = tested on: P388/ADR leukemia
[47] = tested on: PC-3 prostate
[48] = tested on: RPMI-8226 leukemia
[49] = tested on: RXF 393 renal
[50] = tested on: SF-268 CNS
[51] = tested on: SF-295 CNS
[52] = tested on: SF-539 CNS
[53] = tested on: SK-MEL-2 melanoma
[54] = tested on: SK-MEL-28 melanoma
[55] = tested on: SK-MEL-5 melanoma
[56] = tested on: SK-OV-3 ovarian
[57] = tested on: SN12C renal
[58] = tested on: SN12K1 renal
[59] = tested on: SNB-19 CNS
[60] = tested on: SNB-75 CNS
[61] = tested on: SNB-78 CNS
[62] = tested on: SR leukemia
[63] = tested on: SW-620 colon
[64] = tested on: T-47D breast
[65] = tested on: TK-10 renal
[66] = tested on: U251 CNS
[67] = tested on: UACC-257 melanoma
[68] = tested on: UACC-62 melanoma
[69] = tested on: UO-31 renal
[70] = tested on: XF 498 CNS

**Q.** How did the TGI [1] turn out when NS(=O)(=O)OCCCCCCCOS(N)(=O)=O was run?
**A.** 571 µM

**Q.** And the TGI [2]?
**A.** 770 µM

**Q.** And the TGI [3]?
**A.** 729 µM

**Q.** What about the TGI [4] of the same molecule?
**A.** 951 µM

**Q.** What about the TGI [5] of the same molecule?
**A.** 430 µM

**Q.** And the TGI [6]?
**A.** 594 µM

**Q.** And the TGI [7]?
**A.** 1140 µM

**Q.** And the TGI [8]?
**A.** 814 µM

**Q.** What about the TGI [9] of the same molecule?
**A.** 1540 µM

**Q.** And the TGI [10]?
**A.** 669 µM

**Q.** And the TGI [11]?
**A.** 454 µM

**Q.** What about the TGI [12] of the same molecule?
**A.** 873 µM

**Q.** And the TGI [13]?
**A.** 847 µM

**Q.** What about the TGI [14] of the same molecule?
**A.** 718 µM

**Q.** What about the TGI [15] of the same molecule?
**A.** 820 µM

**Q.** And the TGI [16]?
**A.** 1190 µM

**Q.** What about the TGI [17] of the same molecule?
**A.** 469 µM

**Q.** What about the TGI [18] of the same molecule?
**A.** 2350 µM

**Q.** What about the TGI [19] of the same molecule?
**A.** 676 µM

**Q.** And the TGI [20]?
**A.** 781 µM

**Q.** And the TGI [21]?
**A.** 1790 µM

**Q.** What about the TGI [22] of the same molecule?
**A.** 1630 µM

**Q.** And the TGI [23]?
**A.** 937 µM

**Q.** What about the TGI [24] of the same molecule?
**A.** 2110 µM

**Q.** And the TGI [25]?
**A.** 1000 µM

**Q.** And the TGI [26]?
**A.** 1470 µM

**Q.** And the TGI [27]?
**A.** 724 µM

**Q.** And the TGI [28]?
**A.** 579 µM

**Q.** What about the TGI [29] of the same molecule?
**A.** 1300 µM

**Q.** And the TGI [30]?
**A.** 1050 µM

**Q.** What about the TGI [31] of the same molecule?
**A.** 1780 µM

**Q.** What about the TGI [32] of the same molecule?
**A.** 1030 µM

**Q.** What about the TGI [33] of the same molecule?
**A.** 921 µM

**Q.** What about the TGI [34] of the same molecule?
**A.** 1210 µM

**Q.** And the TGI [35]?
**A.** 790 µM

**Q.** And the TGI [36]?
**A.** 887 µM

**Q.** What about the TGI [37] of the same molecule?
**A.** 795 µM

**Q.** And the TGI [38]?
**A.** 401 µM

**Q.** What about the TGI [39] of the same molecule?
**A.** 916 µM

**Q.** And the TGI [40]?
**A.** 1050 µM

**Q.** What about the TGI [41] of the same molecule?
**A.** 835 µM

**Q.** And the TGI [42]?
**A.** 1110 µM

**Q.** And the TGI [43]?
**A.** 1400 µM

**Q.** And the TGI [44]?
**A.** 707 µM

**Q.** And the TGI [45]?
**A.** 1300 µM

**Q.** What about the TGI [46] of the same molecule?
**A.** 2060 µM

**Q.** What about the TGI [47] of the same molecule?
**A.** 1240 µM

**Q.** What about the TGI [48] of the same molecule?
**A.** 1330 µM

**Q.** What about the TGI [49] of the same molecule?
**A.** 660 µM

**Q.** What about the TGI [50] of the same molecule?
**A.** 1290 µM

**Q.** And the TGI [51]?
**A.** 1020 µM

**Q.** What about the TGI [52] of the same molecule?
**A.** 645 µM

**Q.** And the TGI [53]?
**A.** 836 µM

**Q.** What about the TGI [54] of the same molecule?
**A.** 1680 µM

**Q.** What about the TGI [55] of the same molecule?
**A.** 649 µM

**Q.** What about the TGI [56] of the same molecule?
**A.** 1570 µM

**Q.** And the TGI [57]?
**A.** 1180 µM

**Q.** What about the TGI [58] of the same molecule?
**A.** 605 µM

**Q.** What about the TGI [59] of the same molecule?
**A.** 1250 µM

**Q.** What about the TGI [60] of the same molecule?
**A.** 711 µM

**Q.** And the TGI [61]?
**A.** 2020 µM

**Q.** And the TGI [62]?
**A.** 912 µM

**Q.** And the TGI [63]?
**A.** 1280 µM

**Q.** And the TGI [64]?
**A.** 1880 µM

**Q.** What about the TGI [65] of the same molecule?
**A.** 1920 µM

**Q.** What about the TGI [66] of the same molecule?
**A.** 683 µM

**Q.** What about the TGI [67] of the same molecule?
**A.** 1310 µM

**Q.** What about the TGI [68] of the same molecule?
**A.** 412 µM

**Q.** And the TGI [69]?
**A.** 680 µM

**Q.** And the TGI [70]?
**A.** 112 µM
